Source: publication PMC8808168, “Enzymatic and structural characterization of HAD5, an essential phosphomannomutase of malaria-causing parasites” (The Journal of Biological Chemistry, 2021)
Each block holds one molecule with its values, some of them ahead of it.

Experiments:
[1] = target: T1, HsPMM1 (Homo sapiens, UniProt Q92871); test: coupled PGM assay (G6PDH, NADPH at […] nm); assay type: biochemical; conditions: 1 mM glucose 1-phosphate, 10 μM G-1,6-P, 1 mM MgCl2, pH 7.5, room temperature, 133 nM enzyme
T1 construct: gene PMM1; pET28a, His-tag cut with thrombin; E. coli BL21 Gold (DE3)
T1 sequence (Q92871 2-262): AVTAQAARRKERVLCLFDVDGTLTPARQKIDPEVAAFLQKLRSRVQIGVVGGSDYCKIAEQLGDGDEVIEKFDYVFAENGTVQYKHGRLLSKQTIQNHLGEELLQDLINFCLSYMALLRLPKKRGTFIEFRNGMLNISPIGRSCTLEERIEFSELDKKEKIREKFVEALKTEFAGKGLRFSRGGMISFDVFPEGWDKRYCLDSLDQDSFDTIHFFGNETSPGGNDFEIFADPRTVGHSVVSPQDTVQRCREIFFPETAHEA

[2] = target: T2, HsPMM2 (Homo sapiens, UniProt O15305); test: coupled PGM assay (G6PDH, NADPH at […] nm); assay type: biochemical; conditions: 1 mM glucose 1-phosphate, 10 μM G-1,6-P, 1 mM MgCl2, pH 7.5, room temperature, 65 nM enzyme
T2 construct: gene PMM2; pET28a, His-tag cut with thrombin; E. coli BL21 Gold (DE3)
T2 sequence (O15305 2-246): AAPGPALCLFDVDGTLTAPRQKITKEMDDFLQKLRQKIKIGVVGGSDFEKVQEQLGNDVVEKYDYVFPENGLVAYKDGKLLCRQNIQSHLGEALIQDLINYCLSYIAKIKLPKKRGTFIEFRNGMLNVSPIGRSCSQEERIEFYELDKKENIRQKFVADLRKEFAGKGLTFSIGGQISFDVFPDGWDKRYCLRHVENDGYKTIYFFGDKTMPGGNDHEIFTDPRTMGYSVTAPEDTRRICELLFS

[3] = target: T3, HAD5 (PfHAD5) (Plasmodium falciparum, UniProt Q8IJM5); test: linked PMM assay, activation; assay type: biochemical; conditions: 12.5 μM G-1,6-P, 1 mM mannose 6-phosphate, pH 7.5, room temperature; activator
T3 construct: gene PF3D7_1017400; pET28a, N-terminal His-tag cut with thrombin; E. coli BL21 Gold (DE3); size-exclusion purified
T3 sequence (Q8IJM5 1-244): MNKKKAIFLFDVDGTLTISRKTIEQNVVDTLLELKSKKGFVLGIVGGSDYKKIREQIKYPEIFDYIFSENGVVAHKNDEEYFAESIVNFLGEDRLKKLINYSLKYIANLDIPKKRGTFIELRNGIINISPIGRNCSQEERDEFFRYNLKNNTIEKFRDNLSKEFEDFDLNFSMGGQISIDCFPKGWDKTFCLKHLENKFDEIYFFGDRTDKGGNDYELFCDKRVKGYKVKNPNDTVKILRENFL

[4] = substrate: O=P(O)(O)O[C@H]1O[C@H](CO)[C@@H](O)[C@H](O)[C@H]1O; test: purified protein; conditions: G1P to G6P, 10 μM G-1,6-P, 0.75 mM NADP+, 25 mM Tris-HCl, 25 mM NaCl, 1 mM MgCl2, pH 7.5, room temperature

- IC50 [1]: 895 ± 66 µM
- IC50 [2]: 413 ± 41 µM
Molecule: O=P(O)(O)C[C@H]1O[C@H](CNO)[C@@H](O)[C@H](O)[C@H]1O [D9, compound D9]

Molecule: O=P(O)(O)OC[C@H]1O[C@H](OP(=O)(O)O)[C@H](O)[C@@H](O)[C@@H]1O [glucose-1,6-bisphosphate]
- linked PMM assay, activation [3]: upon addition of the known cofactor glucose-1,6-bisphosphate

B1: HAD5 (PfHAD5) (Plasmodium falciparum 3D7) (protein)
chain: T3 sequence (Q8IJM5 1-244)
- Km [4]: 5.2 ± 1.4 µM
- kcat [4]: 7.8e-06 ± 1.2e-06 s⁻¹
- kcat/Km [4]: 1.5 M⁻¹ s⁻¹
